The inhibition is the percentage by which the read-out fell short of the control.

Consider eight compounds from patent US20130289047A1, “HETEROARYLTHIO DERIVATIVES AND ANALOGUES” (EPIOMED THERAPEUTICS, INC., priority 2010, published 2013).

One assay addresses T1, 5HT1A receptor (Homo sapiens, UniProt P08908).
T1 sequence (P08908 1-422): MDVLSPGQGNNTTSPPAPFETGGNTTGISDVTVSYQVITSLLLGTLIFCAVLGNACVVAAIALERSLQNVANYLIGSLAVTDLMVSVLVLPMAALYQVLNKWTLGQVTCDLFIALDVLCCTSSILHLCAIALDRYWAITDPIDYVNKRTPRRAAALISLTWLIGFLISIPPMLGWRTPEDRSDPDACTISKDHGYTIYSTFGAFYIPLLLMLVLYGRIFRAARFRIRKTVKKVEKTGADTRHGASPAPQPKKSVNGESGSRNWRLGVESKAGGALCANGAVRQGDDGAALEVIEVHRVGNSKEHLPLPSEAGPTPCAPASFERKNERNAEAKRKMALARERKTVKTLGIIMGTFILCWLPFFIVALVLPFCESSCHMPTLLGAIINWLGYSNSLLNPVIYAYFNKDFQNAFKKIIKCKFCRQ
Kind of assay: Competitive receptor binding, 5HT1A (radiolabeled OH-DPAT). The note with it: for inhibition at 0.1 µM: 100 nM, read-out: Percent inhibition of receptor binding at 100 nM, 5HT1A Receptor Binding. The protocol: (§1) A set of compounds were tested for their ability to inhibit binding of a binding ligand to the 5HT1A, 5HT1D, and 5HT7 receptors in a competitive assay. The tested compounds were placed in the assay with either radiolabeled OH-DPAT (which binds the 5HT1A receptor), radiolabeled serotonin (which binds the 5HT1D receptor), or radiolabeled LSD (lysergic acid diethylamide, which binds the 5HT7 receptor).

In the next assay the target is 5HT7 receptor (Homo sapiens, UniProt P34969). In words: Competitive receptor binding, 5HT7 (radiolabeled LSD). The note with it: for inhibition at 0.1 µM: 100 nM, read-out: Percent inhibition of receptor binding at 100 nM, 5HT7 Receptor Binding. How it is done:
as §1

Another assay concerns the target 5HT1D receptor (Homo sapiens, UniProt P28221). Kind of assay: Competitive receptor binding, 5HT1D (radiolabeled serotonin). The note with it: for inhibition at 0.1 µM: 100 nM, read-out: Percent inhibition of receptor binding at 100 nM, 5HT1D Receptor Binding. The protocol: as §1
Assay [1] has as its system C57 male mice. In words: Condition Avoidance Responding (CAR, active avoidance) model, antipsychotic activity. In kind it is in vivo. The note with it: 10 mg/kg subcutaneously 30 minutes before test session; C57 male mice tested 24 hours after training; FIG. 1. The protocol: The Condition Avoidance Responding (CAR, active avoidance) model is used as a test for antipsychotic activity. The disruption of avoidance (increased latency) without disruption of escape (extrapyramidal motor function) is a clinical predictor of compounds with antipsychotic activity. The compound of example 10 above (1-[3-(5-Pyridin-4-yl-[1,3,4]oxadiazol-2-ylsulfanyl)propyl]-4-(3-chlorophenyl)piperazine) was evaluated in this model as follows.
(§2) Training of animals (mice) consisted of 20 trials with variable inter-trial intervals (trained to 80% Avoidance Criteria). After a one-minute acclimation period, the house light and an acoustic 90 dB tone (conditioned stimuli) were presented. A response (crossing to a dark compartment) within 5 seconds ended the trial and the trial was recorded as avoidance response (CAR). […] To avoid shock, animals learn to move from the lighted side of the chamber to the dark side when the cue is presented (avoidance) or moved when the shock is administered (escape). Vehicle or test compounds were administered subcutaneously 30 minutes before the test session.
(§3) C57 male mice were tested 24 hours after being trained as described above.

Assay [2] has as its system C57 male mice. In words: Condition Avoidance Responding (CAR, active avoidance) model, memory. It is filed as in vivo. The settings on record: 10 mg/kg subcutaneously 30 minutes before test session; C57 male mice tested 24 hours after training; FIG. 2.
From the text: The Condition Avoidance Responding (CAR, active avoidance) model, although primarily a test for detecting anti-psychotic activity, includes an element of training and learning (acquisition of memory), and thus can also be used as a model for testing a compound's effects on learning (acquisition of information) and memory (retention of information). A decrease in the latency of an animal's response indicates an enhancement of an animal's memory of the stimulus. The compound of example 12 above (1-[3-(1-Phenyl-1H-tetrazol-5-ylsulfanyl)propyl]-4-(3-chlorophenyl)piperazine) was evaluated in this model as follows.
as §2, §3

Chain of 5HT7 receptor (P34969 whole entry): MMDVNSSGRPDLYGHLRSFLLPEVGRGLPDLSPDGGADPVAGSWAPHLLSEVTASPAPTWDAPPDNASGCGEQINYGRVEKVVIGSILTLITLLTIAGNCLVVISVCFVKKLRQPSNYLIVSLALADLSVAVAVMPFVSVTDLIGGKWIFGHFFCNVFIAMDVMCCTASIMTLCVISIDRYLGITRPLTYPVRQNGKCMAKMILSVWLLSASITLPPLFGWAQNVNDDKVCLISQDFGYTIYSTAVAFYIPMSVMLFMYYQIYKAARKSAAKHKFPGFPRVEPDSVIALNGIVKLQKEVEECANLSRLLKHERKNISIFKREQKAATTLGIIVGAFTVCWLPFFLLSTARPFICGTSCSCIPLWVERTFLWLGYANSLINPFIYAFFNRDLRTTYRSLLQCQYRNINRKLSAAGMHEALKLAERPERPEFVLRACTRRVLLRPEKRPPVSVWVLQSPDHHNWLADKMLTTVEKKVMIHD
Chain of 5HT1D receptor (P28221 whole entry): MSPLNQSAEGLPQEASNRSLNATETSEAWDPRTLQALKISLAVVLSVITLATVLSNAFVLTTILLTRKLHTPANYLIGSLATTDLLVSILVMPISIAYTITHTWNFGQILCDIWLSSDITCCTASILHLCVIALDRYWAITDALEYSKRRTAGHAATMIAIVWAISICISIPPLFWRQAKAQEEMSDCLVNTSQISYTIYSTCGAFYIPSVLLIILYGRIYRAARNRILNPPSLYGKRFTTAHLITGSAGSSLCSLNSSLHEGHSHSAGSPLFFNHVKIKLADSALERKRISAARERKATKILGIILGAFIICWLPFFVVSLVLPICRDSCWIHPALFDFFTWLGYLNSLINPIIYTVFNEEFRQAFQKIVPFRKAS

For the compound `Cn1ccnc1SCCN1CCN(c2cccc(C(F)(F)F)c2)CC1` [Example 1, 1-[2-(1-Methyl-1H-imidazol-2-ylsulfanyl)ethyl]-4-(3-trifluoromethylphenyl)piperazine], the inhibition at 0.1 µM at 5HT1A receptor was determined as 87%; at 5HT7 receptor it was 63%; on 5HT1D receptor, 52%.

With `FC(F)(F)c1cccc(N2CCN(CCSc3nnc(-c4ccncc4)o3)CC2)c1` [Example 3, 1-[2-(5-Pyridin-4-yl-[1,3,4]oxadiazol-2-ylsulfanyl)ethyl]-4-(3-trifluoromethylphenyl)piperazine], the inhibition at 0.1 µM is 92% on 5HT1A receptor, 25% on 5HT7 receptor and 10% on 5HT1D receptor.

In the case of `Cn1ccnc1SCCCN1CCN(c2cccc(Cl)c2)CC1` [Example 8, 1-[3-(1-Methyl-1H-imidazol-2-ylsulfanyl)propyl]-4-(3-chlorophenyl)piperazine], the inhibition at 0.1 µM on 5HT1A receptor was 94%; at 5HT7 receptor, 82%; at 5HT1D receptor, 50%.

For `Clc1cccc(N2CCN(CCCSc3nnc(-c4ccncc4)o3)CC2)c1` [Example 10, 1-[3-(5-Pyridin-4-yl-[1,3,4]oxadiazol-2-ylsulfanyl)propyl]-4-(3-chlorophenyl)piperazine], the inhibition at 0.1 µM on 5HT1A receptor amounted to 97%; on 5HT7 receptor, 8%; on 5HT1D receptor, 51%. Also, the “latency in CAR (antipsychotic activity)” value in the assay with C57 male mice [1] is given as “statistically significant increase in latency”.

Regarding `Clc1cccc(N2CCN(CCCSc3nnnn3-c3ccccc3)CC2)c1` [Example 12, 1-[3-(1-Phenyl-1H-tetrazol-5-ylsulfanyl)propyl]-4-(3-chlorophenyl)piperazine], the values for the inhibition at 0.1 µM on 5HT1A receptor, at 5HT7 receptor and at 5HT1D receptor were 75%, 43% and 6%, respectively. For the same compound, the “latency in CAR (memory)” value with C57 male mice [2] is recorded as “statistically significant decrease in latency”.

Turning to `Cn1ccnc1SCCCN1CCN(c2nccc3occc23)CC1` [Example 38, 4-{4-[3-(1-Methyl-1H-imidazol-2-ylsulfanyl)propyl]piperazin-1-yl}furo[3,2-c]pyridine], the inhibition at 0.1 µM on 5HT1A receptor was 71%; on 5HT7 receptor it was 81%.

Turning to `c1ccc(-n2nnnc2SCCCN2CCN(c3nccc4occc34)CC2)cc1` [Example 40, 4-{4-[3-(1-Phenyl-1H-tetrazol-5-ylsulfanyl)propyl]piperazin-1-yl}furo[3,2-c]pyridine], the inhibition at 0.1 µM at 5HT1A receptor stood at 97%; at 5HT7 receptor, 67%; at 5HT1D receptor it was 38%.

Consider `c1cc(-c2nnc(SCCCN3CCN(c4nccc5occc45)CC3)o2)ccn1` [Example 42, 4-{4-[3-(5-Pyridin-4-yl-[1,3,4]oxadiazol-2-sulfanyl)propyl]piperazin-1-yl}furo[3,2-c]pyridine], for which, on 5HT1A receptor, the “Percent inhibition of receptor binding at 100 nM, 5HT1A Receptor Binding” value was found to be 96%. The “Percent inhibition of receptor binding at 100 nM, 5HT7 Receptor Binding” value at 5HT7 receptor was found to be 21%. For the same compound, at 5HT1D receptor, the “Percent inhibition of receptor binding at 100 nM, 5HT1D Receptor Binding” value came out at 65%.
